Laboratory results published in patent publication US9492467B2, “Rapid-acting insulin formulation comprising an oligosaccharide” (ADOCIA, priority 2011, dated 2016).
Counter-ions that a name gives are not always drawn.

Columns and labels:
[1] = target: T1, insulin lispro (hexameric form R6) (Homo sapiens, UniProt P01308, K53P/P52K); experiment: State of association of insulin lispro by circular dichroism (CD signal at 251 nm); assay type: physicochemical; conditions: added to Humalog, FIG. 27
T1 construct: purchased Eli Lilly Humalog®
T1 sequence (P01308 25-54 P52K/K53P limits assumed): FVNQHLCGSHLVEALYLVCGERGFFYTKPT
T1 sequence (P01308 90-110 limits assumed): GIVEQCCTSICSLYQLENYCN
Source text: Circular dichroism makes it possible to study the secondary and quaternary structure of insulin. The insulin monomers organize into dimers and hexamers. […] There are two hexameric forms, form R6 and form T6. […] Loss of the CD signal at 251 nm is connected with destabilization of the hexamer (and therefore the first sign of transformation of the hexamer to dimer).

[2] = target: human insulin (hexameric form) (Homo sapiens, UniProt P01308); experiment: State of association of human insulin by circular dichroism (CD signal at 276 nm); assay type: physicochemical; conditions: absence of m-cresol, FIG. 28
Sequence of human insulin (hexameric form) (P01308 25-54 limits assumed): as the sequence (P01308 25-54 P52K/K53P limits assumed) above, with K28P, P29K counted along it
Source text: Loss of the CD signal at 276 nm is therefore characteristic of destabilization of the hexamer to dimers or monomers.

[3] = pH; cited from earlier work
humans = conditions: injected subcutaneously; cited from earlier work
[4] = form of hexamers, 4° C.; cited from earlier work

In the case of `O=C(O)CN(CCN(CC(=O)O)CC(=O)O)CC(=O)O` [EDTA, reference compound], the “effect on the CD signal at 251 nm / R6 form of insulin lispro” value [1] is reported as “completely destructures the R6 form of insulin lispro” and the “effect on the hexameric structure of human insulin (CD signal at 276 nm)” value [2] is reported as “complete dissociation of the hexamer to dimers”.
With `O=C(O)CC(O)(CC(=O)O)C(=O)O` [citrate, sodium citrate] the “effect on the CD signal at 251 nm / R6 form of insulin lispro” value [1] was “almost no effect”.
For “Insulin lispro: rapid-acting insulin analog, active of Humalog®”, the isoelectric point [3] is given as 5.3.
For “human insulin: insulin obtained by synthesis or recombination whose peptide sequence is the sequence of human insulin”, the hypoglycemic effect after (humans) is given as 60 min and the “stable for” value [4] is given as about 2 years.
